This note sets out measurements from patent publication US5077286A, “Beta-lactam derivatives of the 4-acylcephem sulphone and 3-acylpenam sulphone-type” (Farmitalia Carlo Erba S.r.l., priority 1988, dated 1991).

Broadly, the pKi is the negative decadic logarithm of the Ki, by convention in mol/L. What is called koff is a measure of how fast the partners let go of each other. What is called kon is the rate constant with which the complex forms.

The nature of data set [1]: Chemical stability at 37° C., 0.05M pH 7.4 phosphate buffer (HPLC, time course of starting material depletion). It is filed as physicochemical. Particulars: 0.05m phosphate buffer, 5% DMSO, 10 mM initial conc., read-out: Chemical stability t1/2 (converted). On the procedure:
(a) Chemical stability at 37° C., 0.05M pH 7.4 phosphate buffer (5% DMSO as solubilizing vehicle) was determined by following the time course of starting material depletion ([…] kinetics; 10 mM initial conc.) by HPLC analysis (stationary phase Whatman Partisphere 5 C18, 110×4.7 mm i.d., mobile phase A, pH 2.5 0.1M phosphate buffer; mobile phase B, 60:40 phase A/MeCN; UV detection at λ=254 nm;

Data set [2] addresses T1, human leukocyte elastase (HLE) (Homo sapiens, UniProt P08246).
T1 construct: purchased Calbiochem Lot 702738
T1 sequence (P08246 30-267): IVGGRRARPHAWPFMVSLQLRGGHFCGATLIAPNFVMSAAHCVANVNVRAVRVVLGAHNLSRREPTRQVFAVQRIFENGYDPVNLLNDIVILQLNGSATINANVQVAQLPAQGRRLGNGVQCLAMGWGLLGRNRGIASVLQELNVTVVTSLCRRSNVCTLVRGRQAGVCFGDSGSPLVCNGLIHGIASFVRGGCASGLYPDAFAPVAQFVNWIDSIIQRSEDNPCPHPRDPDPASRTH
The data set can be described thus: HLE-inhibition kinetic parameters (fluorescence, release of 7-amino-4-methylcoumarin from peptide substrate). It is filed as biochemical. As to conditions: 37° C., 0.027M pH 7.4 phosphate buffer, 1% DMSO, 1% MeCN, NaCl (I=0.15); for pKi: read-out: HLE-inhibition kinetic parameters: Ki^ss (apparent dissociation constant of HLE-inhibitor complex at steady state); for koff: read-out: HLE-inhibition kinetic parameters: Koff (dissociation rate); for kon: read-out: HLE-inhibition kinetic parameters: Kon (rate of formation of the HLE complex). As for the experimental part:
(b) Kinetic parameters of HLE (Calbiochem. Lot 702738) were determined at 37° C., 0.027M pH 7.4 phosphate buffer, 1% DMSO, 1% MeCN, NaCl (I=0.15), by monitoring the release of 7-amino-4-methylcoumarin (fluorence detection) from N-methoxysuccinyl-alanyl-propyl-valyl-7-amido-4-methylcoumarin as the substrate, according to the equations: [formula] wherein: [P], [I], [S]=product, inhibitor, and substrate concentration
Km=Michaelis constant for the enzyme-substrate pair (independently determined under the same experimental conditions).

pKi: −log10 of the molar value.

In the case of `CO[C@H]1C(=O)N2C(C(=O)OC(C)(C)C)=C(COC(C)=O)CS(=O)(=O)[C@H]12` [Reference], the half-life at 10000 µM in data set [1] was 3.2 h. Also, in data set [2], the pKi is 7.74, the koff stood at 0.0035 s⁻¹ and the kon came to 9000 M⁻¹ s⁻¹.
For the compound `CO[C@H]1C(=O)N2C(C(=O)C(C)(C)C)=C(COC(C)=O)CS(=O)(=O)[C@H]12` [Compound 51, 3-Acetoxymethyl-4-tert-butylcarbonyl-(7α)-methoxy-3-cephem 1,1-dioxide], the half-life at 10000 µM in data set [1] was 19.3 h. In data set [2], the pKi is 7.96, the koff was 0.0026 s⁻¹ and the kon is 20000 M⁻¹ s⁻¹.
